Tests used:
Experiment in all cases: relative viability (nuclei count vs DMSO), 5 days (fraction); higher = more cells survive
[1] = compound: CCOc1cc2ncc(C#N)c(Nc3ccc(OCc4ccccn4)c(Cl)c3)c2cc1NC(=O)/C=C/CN(C)C [Neratinib]
Procedure, shortened: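 Lung cancer cell lines were seeded into 1536-well plates, kept overnight at 37 °C and pinned with five library-drug doses (not always all listed) spaced by √10. After 5 days, nuclei were Hoechst-stained, imaged at 4× and counted with MetaXpress. Viability is treated-well nuclei over vehicle-well nuclei, taken as a median across plates. Plates needed control CV below 25% and at least one doubling.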

[2] = compound: CCOc1cc2ncc(C#N)c(Nc3ccc(OCc4ccccn4)c(Cl)c3)c2cc1NC(=O)/C=C/CN(C)C [Neratinib] + CC1(C)CCC(c2ccc(Cl)cc2)=C(CN2CCN(c3ccc(C(=O)NS(=O)(=O)c4ccc(N[C@H](CCN5CCOCC5)CSc5ccccc5)c(S(=O)(=O)C(F)(F)F)c4)cc3)CC2)C1 [Navitoclax] (partner 0.5 µM)
Procedure, shortened: (§1)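 Lung cancer cell lines were pin-tool dosed in 1536-well plates on the day after seeding, with either a lone drug or a fixed anchor-drug dose plus five library-drug doses (not always all listed) in √10 steps. Nuclei were counted on 4× images after 5 days. Relative viability is the ratio of treated-well to vehicle-well nuclei counts, with each value a median of duplicate plates.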

[3] = compound: CCOc1cc2ncc(C#N)c(Nc3ccc(OCc4ccccn4)c(Cl)c3)c2cc1NC(=O)/C=C/CN(C)C [Neratinib] + Cc1cc(Nc2cc(N3CCN(C)CC3)nc(Sc3ccc(NC(=O)C4CC4)cc3)n2)n[nH]1 [Tozasertib] (partner 0.1 µM)
Procedure, shortened: as §1

[4] = compound: CCOc1cc2ncc(C#N)c(Nc3ccc(OCc4ccccn4)c(Cl)c3)c2cc1NC(=O)/C=C/CN(C)C [Neratinib] + N=C(N)NC(=N)NCCc1ccccc1 [Phenformin] (partner 250 µM)
Procedure, shortened: as §1

Row | Cell Line | relative viability ([1]; 0.01 µM) | relative viability ([1]; 0.03162 µM) | relative viability ([1]; 0.1 µM) | relative viability ([1]; 0.3162 µM) | relative viability ([1]; 1 µM) | relative viability ([2]; first compound 0.03162 µM) | relative viability ([2]; first compound 0.1 µM) | relative viability ([2]; first compound 0.3162 µM) | relative viability ([2]; first compound 1 µM) | relative viability ([3]; first compound 0.01 µM) | relative viability ([3]; first compound 0.03162 µM) | relative viability ([3]; first compound 0.1 µM) | relative viability ([3]; first compound 0.3162 µM) | relative viability ([3]; first compound 1 µM) | relative viability ([4]; first compound 0.01 µM) | relative viability ([4]; first compound 0.03162 µM) | relative viability ([4]; first compound 0.1 µM) | relative viability ([4]; first compound 0.3162 µM) | relative viability ([4]; first compound 1 µM) | relative viability ([2]; first compound 0.01 µM)
1 | LU99A | 0.948 | 1.04 | 0.908 | 0.891 | 0.646 | 0.881 | 0.708 | 0.799 | 0.359 | 0.286 | 0.279 | 0.274 | 0.25 | 0.19 | 0.92 | 0.905 | 0.87 | 0.801 | 0.683 | 
2 | LXF-289 | 1.03 | 1.07 | 0.948 | 1.05 | 1.01 | 0.972 | 0.923 |  | 0.878 | 0.22 | 0.233 | 0.183 | 0.174 | 0.186 | 0.533 | 0.537 | 0.461 | 0.476 | 0.435 | 0.975
3 | NCI-H23 | 1.1 | 1.15 | 0.811 | 0.922 | 0.739 | 1.12 | 0.694 | 0.838 | 0.528 | 0.371 | 0.342 | 0.33 | 0.298 | 0.215 | 0.959 | 0.905 | 0.827 | 0.731 | 0.597 | 0.745
4 | NCI-H322M | 0.956 | 0.926 | 0.784 | 0.491 | 0.288 | 1.17 | 0.558 | 0.701 | 0.627 | 0.502 | 0.47 | 0.451 | 0.33 | 0.284 | 0.762 | 0.671 | 0.671 | 0.376 | 0.283 | 1.18
5 | NCI-H441 | 1.32 | 1.15 | 0.89 |  | 0.529 | 0.571 | 0.707 | 0.624 | 0.173 | 0.611 | 0.775 | 0.666 | 0.384 | 0.334 | 1.04 | 0.82 | 0.94 | 0.705 | 0.45 | 0.767
6 | NCI-H460 |  | 1.11 | 0.865 | 0.978 | 0.981 | 1.3 |  | 1.11 | 0.441 | 0.587 | 0.546 | 0.378 | 0.268 | 0.0381 | 0.58 | 0.675 | 0.414 | 0.491 | 0.341 | 1.37
7 | NCI-H520 | 1.11 | 1.07 | 0.937 | 0.922 | 0.649 | 1.42 | 0.965 | 1.03 | 0.779 | 0.455 | 0.418 | 0.401 | 0.433 | 0.33 | 0.599 | 0.78 | 0.53 | 0.496 | 0.287 | 1.1
8 | NCI-H596 | 1.01 | 1.03 | 0.984 | 1.09 | 0.817 | 1.01 | 0.954 | 1.04 | 0.787 | 0.862 | 0.961 | 0.736 | 0.857 | 0.601 | 0.754 | 0.895 | 0.75 | 0.695 | 0.562 | 0.998

From the supplement of paper PMC10307832
